Measured values from patent US20240366739A1, “MEDICAMENT FOR TREATMENT AND/OR PREVENTION OF CANCER” (TORAY INDUSTRIES, INC., priority 2021, published 2024).

Test system: mouse lymphoma cell line EG7 (OVA-expressing cancer cells) subcutaneously transplanted
Test: in vivo antitumor effect in cancer-bearing mice (tumor volume measured with calipers)
Conditions: Example 6; C57BL/6NCR mice with EG7 tumors; particle 0.5 mg s.c. once a week x2 from day 7; Poly(I:C) 50 μg into tumors twice a week x4; mixture given s.c.

Substance: Poly(I:C)
- tumor growth / regression (tumor volume): not changed compared to negative controls
